Source: the supplement of paper PMC10307832

Key:
Experiment in all cases: relative viability (nuclei count vs DMSO), 5 days (fraction); higher = more cells survive
[1] = compound: C[C@@H](Oc1cc(-c2cnn(C3CCNCC3)c2)cnc1N)c1c(Cl)ccc(F)c1Cl [Crizotinib] + Cc1nc(Nc2ncc(C(=O)Nc3c(C)cccc3Cl)s2)cc(N2CCN(CCO)CC2)n1 [Dasatinib] (partner 0.075 µM)
In short: (§1)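 For relative viability, nuclei counts in treated wells were divided by those in vehicle wells. Lung cancer cell lines had been pin-tool dosed in 1536-well plates the day after seeding and cultured for 5 days, then fixed and stained in one step (final 0.05% Triton X-100, 1% formaldehyde, 1 ug/ml Hoechst) and imaged at 4×. Doses were one drug alone or a fixed anchor-drug dose plus five library-drug doses (not always all listed) in √10 steps, and values are duplicate-plate medians.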

[2] = compound: O=C(c1cc(Cc2n[nH]c(=O)c3ccccc23)ccc1F)N1CCN(C(=O)C2CC2)CC1 [Olaparib] + C[C@@H](Oc1cc(-c2cnn(C3CCNCC3)c2)cnc1N)c1c(Cl)ccc(F)c1Cl [Crizotinib] (partner 1 µM)
In short: as §1

[3] = compound: O=C(c1cc(Cc2n[nH]c(=O)c3ccccc23)ccc1F)N1CCN(C(=O)C2CC2)CC1 [Olaparib] + NC(=O)Nc1cc(-c2cccc(F)c2)sc1C(=O)N[C@H]1CCCNC1 [AZD7762] (partner 0.2 µM)
In short: as §1

[4] = compound: O=C(c1cc(Cc2n[nH]c(=O)c3ccccc23)ccc1F)N1CCN(C(=O)C2CC2)CC1 [Olaparib] + O=C(CCCCCCC(=O)Nc1ccccc1)NO [Vorinostat] (partner 1 µM)
In short: as §1

Cell Line	relative viability ([1]; first compound 0.01 µM)	relative viability ([1]; first compound 0.03162 µM)	relative viability ([1]; first compound 0.1 µM)	relative viability ([1]; first compound 0.3162 µM)	relative viability ([1]; first compound 1 µM)	relative viability ([2]; first compound 0.08 µM)	relative viability ([2]; first compound 0.253 µM)	relative viability ([2]; first compound 2.53 µM)	relative viability ([2]; first compound 8 µM)	relative viability ([3]; first compound 0.08 µM)	relative viability ([3]; first compound 0.253 µM)	relative viability ([3]; first compound 2.53 µM)	relative viability ([3]; first compound 8 µM)	relative viability ([4]; first compound 0.08 µM)	relative viability ([4]; first compound 0.253 µM)	relative viability ([4]; first compound 2.53 µM)	relative viability ([4]; first compound 8 µM)
201T	0.599	0.628	0.614	0.548	0.569	1.01	1	1.01	0.973	0.641	0.609	0.522	0.383	1.07	0.912	0.954	0.947
A-427	0.696	0.765	0.687		0.719	0.958	0.882	0.705	0.71	0.786	0.671	0.579	0.427	0.911	0.863	0.871	0.76
ABC-1		0.534	0.54	0.501	0.616	1.57	1.04	1.19	0.961	0.799	0.75	0.842	0.691	1.13		1.08	1.07
BEN	0.295	0.311	0.27	0.224	0.312	0.856	0.82	1	0.931	0.638	0.571	0.727	0.664	0.625	0.606	0.582	0.566
CAL-12T	0.407	0.47	0.394		0.299	0.917	0.575	0.95	0.572	0.757	0.555	0.726	0.544	1.15	0.663	0.917	0.687
ChaGo-K-1	0.58	0.573	0.487	0.424	0.624	1.26	1.06	1.31	0.862	0.955	0.785	0.811	0.626	0.815	0.665	0.63	0.416
EKVX	0.372	0.572	0.514	0.492	0.648	1.13	0.831	1.08	0.98	0.81	0.618	0.782	0.741	0.667	0.679	0.776	0.646
EMC-BAC-2	0.369	0.313	0.282	0.363	0.331	0.767	0.727	0.638	0.603	1.25	1.08	1.08	0.91	0.584	0.405	0.703	0.446
EPLC-272H	0.426	0.382	0.445	0.366	0.401	1.06	0.751	1.07	0.864	0.289	0.163	0.176	0.114	0.513	0.386	0.472	0.4
H3255	0.381	0.462	0.422	0.393	0.258	0.901	0.913	0.885	0.814	1.04	0.823	0.852	0.933	0.859	0.722	0.904	0.757
HARA	0.28	0.279	0.256		0.198	1.04	0.93	1.08	0.803	0.302	0.43	0.251	0.206	0.45	0.472	0.553	0.507
HCC-15	0.557	0.573	0.639		0.562	0.96	0.75	0.851	0.69	1.24	1.11	1.23	1.08	0.956	0.819	0.83	0.687
HCC-78		0.335	0.448	0.361	0.322	0.395	0.356	0.396	0.368	0.839	0.664	0.672	0.737	0.443	0.429	0.377	0.557
HCC-366	0.592	0.649	0.618		0.458	0.517	0.473	0.238	0.145	0.258	0.196	0.168	0.0718	0.352	0.273	0.191	0.101
HCC-827	0.287	0.289	0.255	0.225	0.326	0.941	0.908	0.949	0.814	0.259	0.214	0.239	0.224	0.818	0.723	0.893	0.766
HOP-62	0.581	0.637	0.613	0.663	0.716	1.07	0.902	0.792	0.631	0.43	0.614	0.463	0.155	0.757	0.575	0.675	0.379
LC-2-ad	0.46	0.586	0.595	0.382	0.453	0.368	0.388	0.472	0.406	0.89	0.76	0.851	0.727	0.749	0.604	0.66	0.495
LCLC-97TM1	0.827	0.763	0.784	0.816	0.846	0.409	0.35	0.365	0.305	0.294	0.202		0.168	1.08	0.63	0.615	0.599
LCLC-103H	0.479	0.418	0.416	0.497	0.484	1.15	1.04	1.04	0.985	0.916	0.773	0.727	0.56	0.936	0.762	0.801	0.678
